{
  "source": "paper PMC8704709",
  "about": "“Improved Anticancer Activities of a New Pentafluorothio-Substituted Vorinostat-Type Histone Deacetylase Inhibitor” (Pharmaceuticals, 2021)",
  "key": {"[1]": {"system": "SMZ1 cells", "test": "IC50 by Annexin-V/7AAD dual staining, flow cytometry", "type": "cell-based", "conditions": "Homo sapiens, as determined after 48 h, means ± SEM, n ≥ 3, read-out: Growth inhibitory activity IC50, SMZ1", "experimental": "Stock solutions (10 mM) prepared by dissolution in DMSO were stored at −20 °C. Working solutions were always freshly prepared before each experiment by dilution of stock solution with medium. The final DMSO concentration never exceeded 0.25%. Treatment-induced changes in cell number were determined by crystal violet (N-hexamethylpararosaniline from Sigma Aldrich) staining. 1000 cells/well (DU145) or 1500 cells/well (Hep-G2) were seeded in 96-well plates and maintained for adherence in an incubator (37 °C, 5% CO2, humidified atmosphere) for 48 h prior to the beginning of the treatment. […] Thereafter, the cells were fixed with 1% glutaraldehyde and stained with 0.1% crystal violet. The unbound dye was removed by rinsing with water. Bound crystal violet was solubilized with 0.2% Triton X-100 (Sigma-Aldrich). Light extinction of crystal violet, which increases linearly with the cell number, was analyzed at 570 nm using an ELISA-Reader (Dynex Technologies, Denkendorf, Germany). For T-cell leukemia/lymphoma cell lines apoptosis was determined using dual staining for Annexin-V and 7AAD via flow cytometry."}, "[2]": {"system": "DU145 cells", "test": "Unspecific cytotoxicity (LDH release)", "type": "cell-based, human", "conditions": "1–10 µM, 3 and 24 h", "experimental": "To exclude unspecific cytotoxicity as the driving mode of action for antiproliferative effects, the release of lactate dehydrogenase (LDH) from DU145 cells was determined after 3 h and 24 h of treatment using the Cytotoxicity Detection Kit PLUS LDH (Roche Diagnostics GmbH, Mannheim, Germany). The assay was performed as described earlier. Cytotoxicity was determined by subtracting the percentage of LDH release into the supernatant under control conditions of those from treated samples. Measurements were performed in duplicate in n = 3 independent experiments and mean percentage changes ± SEM as compared to controls are shown."}, "[3]": {"system": "caspase-3 activity in DU145 cells", "test": "Apoptosis-specific caspase-3 activation (AC-DEVD-AMC cleavage)", "type": "cell-based, human", "conditions": "24 h treatment, 1–10 µM", "experimental": "(§1) Changes in caspase-3 activity were measured by the cleavage of the fluorogenic substrate AC-DEVD-AMC (EMD Millipore, Billerica, MA, USA), as described previously. […] Subsequently, the lysates were incubated for 1 h at 37 °C with a substrate solution containing 20 μg/mL AC-DEVD-AMC, 20 mM HEPES, 10% glycerol and 2 mM DTT at pH 7.5."}, "[4]": {"system": "caspase-3 activity in Hep-G2 cells", "test": "Apoptosis-specific caspase-3 activation (AC-DEVD-AMC cleavage)", "type": "cell-based, human", "conditions": "24 h treatment, 1–10 µM", "experimental": "as §1"}, "[5]": {"system": "Hep-G2 cells", "test": "Unspecific cytotoxicity (LDH release)", "type": "cell-based, human", "conditions": "1–10 µM, 3 and 24 h"}, "[6]": {"system": "DU145 cells", "test": "Western blot in DU145 cells (acetyl-H3, PARP, EGFR, P-mTOR)", "type": "cell-based, human", "conditions": "24 h", "experimental": "(§2) Western blots were performed as described earlier. Cells were seeded in 100 mm petri dishes, grown to almost confluency, treated for 24 h, washed and frozen, followed by lysis with RIPA Buffer, added with one cOmplete™ Mini protease Inhibitor tablet/10 mL (Roche), and quantification with Pierce^TM BCA Protein Assay Kit (Thermo Fisher Scientific). Thereafter protein levels were normalized to untreated controls so equal protein loading of 20 µg/lane. Laemmli Buffer and β-mercaptoethanol were added before probes were desaturated at 96 °C for 10 min. First, 7.5% or 12% SDS gels (Biorad, Munich, Germany) were loaded with proteins and electrophoresis was done. Thereafter, proteins were transferred to activated polyvinylidene difluoride membranes (PVDF) by electroblotting. Finally, the membranes were blocked with 1% BSA and incubated with primary antibodies over night at 4 °C.\n(§3) Blots were washed three times with 1% TBS-Tween and incubated with anti-mouse or anti-rabbit peroxidase-coupled anti-IgG secondary antibodies (1:5000–1:10,000) at room temperature for 60 min. Subsequently, antibody bondage was illustrated using Clarity and Clarity Max ECL Western Blotting Substrates (Biorad, Munich, Germany) for detection and Celvin-S developer (Biostep, software SnapAndGo Vs 1.8.1) for development. […] Values were normalized to β-actin expression, which served as a loading control and compared to untreated control expressions which was set at 1. The mean ± SEM of the relative values to control are illustrated with Graph Pad Prism 8."}, "[7]": {"system": "DU145 cells", "test": "Cytosolic ROS formation (CellROX Orange fluorescence microscopy)", "type": "cell-based, human", "conditions": "6–24 h", "experimental": "(§4) Untreated cells incubated with 1.6 mM H2O2 for 30 min served as positive controls. CellROX® Orange reagent (1 µM) was applied, when adding the test compounds. Formation of ROS was measured after 3 h, 6 h, 12 h (not shown) and 24 h using ZOE™ Fluorescent Cell Imager (Biorad, Munich, Germany). n = 3 independent experiments performed in triplicate for each condition."}, "[8]": {"system": "Hep-G2 cells", "test": "Cytosolic ROS formation (CellROX Orange fluorescence microscopy)", "type": "cell-based, human", "conditions": "6–24 h", "experimental": "as §4"}, "[9]": {"system": "Hep-G2 cells", "test": "Western blot in Hep-G2 cells (acetyl-H3, Apaf-1, Bcl-2)", "type": "cell-based, human", "conditions": "24 h", "experimental": "as §2, with “°C. […] Only the Jurkat cells had already a high level of α-tubulin in untreated cells and, thus, drug-induced changes were not detectable in these cells.” for “°C.”\nas §3"}},
  "data": [
    {"smiles": "O=C(CCCCCCC(=O)Nc1ccccc1)NO", "note": "[SAHA, suberoylanilide hydroxamic acid, reference compound]", "values": [
      {"measurement": "IC50", "setting": "[1]", "value": "2870 ± 330", "unit": "nM"},
      {"measurement": "LDH release (unspecific cytotoxicity)", "setting": "[2]", "value": "no relevant induction of unspecific cytotoxicity"},
      {"measurement": "caspase-3 activation", "setting": "[3]", "value": "comparable caspase-3 inductions"},
      {"measurement": "caspase-3 activation", "setting": "[4]", "value": "comparable caspase-3 inductions"},
      {"measurement": "LDH release (unspecific cytotoxicity)", "setting": "[5]", "value": "no relevant induction of unspecific cytotoxicity"},
      {"measurement": "EGFR protein expression", "setting": "[6]", "value": "pronounced and significant suppression in the expression of the EGFR"},
      {"measurement": "acetylated histone H3 level", "setting": "[6]", "value": "dose-dependent rise of H3 acetylation"},
      {"measurement": "cytosolic ROS formation", "setting": "[7]", "value": "much weaker ROS increase"},
      {"measurement": "cytosolic ROS formation", "setting": "[8]", "value": "much weaker ROS increase"},
      {"measurement": "acetylated histone H3 level", "setting": "[9]", "value": "dose-dependent rise of H3 acetylation"}
    ]}
  ]
}
